Values after ≈ are worked out from the molar mass of the structure shown.
How the values were obtained:
Experiment in all cases: minimal inhibitory concentration, two-fold agar dilution
Format in all cases: cell-based
[1] = test system: Staphylococcus aureus ATCC 10537; conditions: ATCC10537, Muller-Hinton agar, 37°C, 20 hours, read-out: MIC values against the standard strains
Summary of the method: (§1)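 Compounds were serially diluted two-fold into Mueller-Hinton agar, and each plate was spot-inoculated with the test strain at 10⁷ CFU per ml. Plates were incubated at 37°C for 20 hours before MIC values were read.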

[2] = test system: Pseudomonas aeruginosa ATCC 27853; conditions: ATCC27853, Muller-Hinton agar, 37°C, 20 hours, read-out: MIC values against the standard strains
Summary of the method: as §1

[3] = test system: Micrococcus luteus ATCC 9341; conditions: ATCC9341, Muller-Hinton agar, 37°C, 20 hours, read-out: MIC values against the standard strains
Summary of the method: as §1

[4] = test system: Bacillus megaterium ATCC 9885; conditions: Priestia megaterium, ATCC9885; Muller-Hinton agar; 37°C; 20 hours; read-out: MIC values against the standard strains
Summary of the method: as §1

[5] = test system: Shigella flexneri ATCC 11836; conditions: ATCC11836, Muller-Hinton agar, 37°C, 20 hours, read-out: MIC values against the standard strains
Summary of the method: as §1

[6] = test system: Staphylococcus aureus ATCC 6538p; conditions: ATCC6538P, Muller-Hinton agar, 37°C, 20 hours, read-out: MIC values against the standard strains
Summary of the method: as §1

[7] = test system: Escherichia coli ATCC 10536; conditions: ATCC10536, Muller-Hinton agar, 37°C, 20 hours, read-out: MIC values against the standard strains
Summary of the method: as §1

[8] = test system: Streptococcus faecalis ATCC 29212; conditions: Enterococcus faecalis, ATCC29212; Muller-Hinton agar; 37°C; 20 hours; read-out: MIC values against the standard strains
Summary of the method: as §1

[9] = test system: Staphylococcus epidermidis ATCC 12228; conditions: ATCC12228, Muller-Hinton agar, 37°C, 20 hours, read-out: MIC values against the standard strains
Summary of the method: as §1

[10] = test system: Shigella sonnei ATCC 11060; conditions: ATCC11060, Muller-Hinton agar, 37°C, 20 hours, read-out: MIC values against the standard strains
Summary of the method: as §1

[11] = test system: Escherichia coli ATCC 25922; conditions: ATCC25922, Muller-Hinton agar, 37°C, 20 hours, read-out: MIC values against the standard strains
Summary of the method: as §1

[12] = test system: Klebsiella pneumoniae ATCC 10031; conditions: ATCC10031, Muller-Hinton agar, 37°C, 20 hours, read-out: MIC values against the standard strains
Summary of the method: as §1

[13] = test system: Proteus vulgaris ATCC 6059; conditions: ATCC6059, Muller-Hinton agar, 37°C, 20 hours, read-out: MIC values against the standard strains
Summary of the method: as §1

[14] = test system: Citrobacter freundii ATCC 8090; conditions: ATCC8090, Muller-Hinton agar, 37°C, 20 hours, read-out: MIC values against the standard strains
Summary of the method: as §1

[15] = test system: Providencia rettgeri ATCC 9250; conditions: ATCC9250, Muller-Hinton agar, 37°C, 20 hours, read-out: MIC values against the standard strains
Summary of the method: as §1

[16] = test system: Enterobacter cloacae ATCC 27508; conditions: ATCC27508, Muller-Hinton agar, 37°C, 20 hours, read-out: MIC values against the standard strains
Summary of the method: as §1

[17] = test system: Serratia marcescens ATCC 27117; conditions: ATCC27117, Muller-Hinton agar, 37°C, 20 hours, read-out: MIC values against the standard strains
Summary of the method: as §1

[18] = test system: Salmonella typhimurium ATCC 14028; conditions: Salmonella enterica; Muller-Hinton agar; 37°C; 20 hours; read-out: MIC values against the standard strains
Summary of the method: as §1

[19] = test system: Pseudomonas aeruginosa ATCC 10145; conditions: ATCC10145, Muller-Hinton agar, 37°C, 20 hours, read-out: MIC values against the standard strains
Summary of the method: as §1

[20] = test system: Bacillus cereus ATCC 11778; conditions: ATCC11778, Muller-Hinton agar, 37°C, 20 hours, read-out: MIC values against the standard strains
Summary of the method: as §1

[21] = test system: Enterobacter aerogenes ATCC 29751; conditions: Klebsiella aerogenes, ATCC29751; Muller-Hinton agar; 37°C; 20 hours; read-out: MIC values against the standard strains
Summary of the method: as §1

[22] = test system: Proteus mirabilis ATCC 25933; conditions: ATCC25933, Muller-Hinton agar, 37°C, 20 hours, read-out: MIC values against the standard strains
Summary of the method: as §1

[23] = test system: Acinetobacter calcoaceticus ATCC 15437; conditions: ATCC15437, Muller-Hinton agar, 37°C, 20 hours, read-out: MIC values against the standard strains
Summary of the method: as §1

[24] = test system: Pseudomonas aeruginosa ATCC 25619; conditions: ATCC25619, Muller-Hinton agar, 37°C, 20 hours, read-out: MIC values against the standard strains
Summary of the method: as §1

[25] = test system: Morganella morganii ATCC 8076h; conditions: ATCC8076H, Muller-Hinton agar, 37°C, 20 hours, read-out: MIC values against the standard strains
Summary of the method: as §1

CC[n+]1c(SCC2=C(C(=O)[O-])N3C(=O)[C@@H](NC(=O)/C(=N\OC(C)(C)C(=O)O)c4csc(N)n4)[C@H]3SC2)nc(N)c(N)c1N [Example 11, 7-[(Z)-2-(2-aminothiazol-4-yl)-2-(carboxyprop-2-oxyimino)acetamido]-3-(4,5,6-triamino-1-ethylpyrimidinium-2-yl)thiomethyl-3-cephem-4-carboxylate]
MIC [1]: 2 µg/mL (≈ 3.06 µM) | MIC [2]: 4 µg/mL (≈ 6.13 µM) | MIC [3]: 0.13 µg/mL (≈ 0.199 µM) | MIC [4]: 0.13 µg/mL (≈ 0.199 µM) | MIC [5]: 0.063 µg/mL (≈ 0.0965 µM) | MIC [6]: 4 µg/mL (≈ 6.13 µM) | MIC [7]: 0.031 µg/mL (≈ 0.0475 µM) | MIC [8]: > 128 µg/mL | MIC [9]: 2 µg/mL (≈ 3.06 µM) | MIC [10]: 1 µg/mL (≈ 1.53 µM) | MIC [11]: 0.063 µg/mL (≈ 0.0965 µM) | MIC [12]: 0.063 µg/mL (≈ 0.0965 µM) | MIC [13]: 0.25 µg/mL (≈ 0.383 µM) | MIC [14]: 0.13 µg/mL (≈ 0.199 µM) | MIC [15]: 0.063 µg/mL (≈ 0.0965 µM) | MIC [16]: 0.031 µg/mL (≈ 0.0475 µM) | MIC [17]: 1 µg/mL (≈ 1.53 µM) | MIC [18]: 1 µg/mL (≈ 1.53 µM) | MIC [19]: 8 µg/mL (≈ 12.3 µM) | MIC [20]: 128 µg/mL (≈ 196 µM) | MIC [21]: 2 µg/mL (≈ 3.06 µM) | MIC [22]: 0.25 µg/mL (≈ 0.383 µM) | MIC [23]: 8 µg/mL (≈ 12.3 µM) | MIC [24]: 2 µg/mL (≈ 3.06 µM) | MIC [25]: ≤ 0.008 µg/mL

CCO/N=C(\C(=O)N[C@@H]1C(=O)N2C(C(=O)[O-])=C(CSc3nc(N)cc[n+]3CC)CS[C@H]12)c1nsc(N)n1 [Example 16, 7-[(Z)-2-(5-amino-1,2,4-thiadiazol-3-yl)-2-(ethoxyimino)acetamido]-3-(4-amino-1-ethylpyrimidinium-2-yl)thiomethyl-3-cephem-4-carboxylate]
MIC [1]: 0.5 µg/mL (≈ 0.884 µM) | MIC [2]: 4 µg/mL (≈ 7.07 µM) | MIC [3]: 0.5 µg/mL (≈ 0.884 µM) | MIC [4]: 0.5 µg/mL (≈ 0.884 µM) | MIC [5]: 0.5 µg/mL (≈ 0.884 µM) | MIC [6]: 0.25 µg/mL (≈ 0.442 µM) | MIC [7]: 0.031 µg/mL (≈ 0.0548 µM) | MIC [8]: 32 µg/mL (≈ 56.6 µM) | MIC [9]: 0.5 µg/mL (≈ 0.884 µM) | MIC [10]: 0.5 µg/mL (≈ 0.884 µM) | MIC [11]: 0.031 µg/mL (≈ 0.0548 µM) | MIC [12]: 0.016 µg/mL (≈ 0.0283 µM) | MIC [13]: 2 µg/mL (≈ 3.54 µM) | MIC [14]: 0.5 µg/mL (≈ 0.884 µM) | MIC [15]: 0.031 µg/mL (≈ 0.0548 µM) | MIC [16]: 0.063 µg/mL (≈ 0.111 µM) | MIC [17]: 1 µg/mL (≈ 1.77 µM) | MIC [18]: 1 µg/mL (≈ 1.77 µM) | MIC [19]: 16 µg/mL (≈ 28.3 µM) | MIC [20]: 64 µg/mL (≈ 113 µM) | MIC [21]: 0.063 µg/mL (≈ 0.111 µM) | MIC [22]: 2 µg/mL (≈ 3.54 µM) | MIC [23]: 8 µg/mL (≈ 14.1 µM) | MIC [24]: 2 µg/mL (≈ 3.54 µM) | MIC [25]: 0.031 µg/mL (≈ 0.0548 µM)

Reference: patent EP0584797A2, “Novel cephalosporin compounds and processes for the preparation thereof” (LUCKY LTD., priority 1992, dated 1994)
